In ChEMBL document CHEMBL1287791, “In silico identification and biochemical evaluation of novel inhibitors of NRH:quinone oxidoreductase 2 (NQO2)” (Bioorg Med Chem Lett, 2010):
Calls of active or inactive are those of the source. The rule behind the calls is not given here.

Key:
[1] = molecular target: T1, Ribosyldihydronicotinamide dehydrogenase [quinone] (Homo sapiens, UniProt P16083); test: Inhibition of human recombinant NQO2
T1 sequence (P16083 whole entry): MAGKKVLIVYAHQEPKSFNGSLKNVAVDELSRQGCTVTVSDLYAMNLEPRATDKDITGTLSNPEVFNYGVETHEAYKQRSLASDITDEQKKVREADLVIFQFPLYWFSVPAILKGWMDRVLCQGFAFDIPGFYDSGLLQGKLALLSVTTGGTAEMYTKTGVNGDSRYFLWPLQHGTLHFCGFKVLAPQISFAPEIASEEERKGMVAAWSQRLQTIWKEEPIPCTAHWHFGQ

[2] = molecular target: T2, Ribosyldihydronicotinamide dehydrogenase [quinone] (Homo sapiens) (UniProt P16083); test: Inhibition of human recombinant NQO2 at 100 uM
T2 sequence (whole entry): T1 sequence (P16083 whole entry)

[3] = molecular target: NAD(P)H dehydrogenase [quinone] 1 (Homo sapiens, UniProt P15559); test: Inhibition of human recombinant NQO1
Sequence of NAD(P)H dehydrogenase [quinone] 1 (P15559 whole entry): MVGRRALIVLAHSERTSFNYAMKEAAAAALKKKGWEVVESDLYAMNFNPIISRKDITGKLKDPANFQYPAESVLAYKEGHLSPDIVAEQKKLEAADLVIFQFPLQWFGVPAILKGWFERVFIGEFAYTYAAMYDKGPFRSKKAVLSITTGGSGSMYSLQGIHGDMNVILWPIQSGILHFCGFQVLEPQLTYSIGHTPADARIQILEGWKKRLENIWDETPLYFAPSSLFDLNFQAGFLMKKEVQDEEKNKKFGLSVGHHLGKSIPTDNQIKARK

Row | SMILES | IC50 [1] | inhibition [2] | IC50 [3]
1 | N=C(N)c1ccc(/N=N/c2cc(/N=N/c3ccccc3)ccc2O)cc1 | 1.8 µM | inactive | 
2 | Cc1nc(-n2nc(-c3ccccc3)cc2-c2ccccc2)sc1C(=O)/C=C/c1ccccc1 | 5.8 µM |  | 
3 | CN(CCc1ccccn1)c1ccc2c(c1)Cc1ccccc1-2 |  | inactive | 
4 | C/C(=N\NC(=O)c1ccncc1)c1sc(-n2nc(-c3ccccc3)cc2-c2ccccc2)nc1C |  | inactive | 
5 | N=C(N)c1ccc(/N=N/c2cc(/C=C/c3ccccc3)ccc2O)cc1 | 1.4 µM | inactive | 
6 | O=[N+]([O-])c1ccc(-n2nc3ccc4c(no[n+]4[O-])c3n2)cc1 |  | inactive | 
7 | Oc1ccc2ccccc2c1/N=N/c1ccc(F)cc1 |  | inactive | 
8 | COc1cc2cc(-c3cc(OC)c(OC)c(OC)c3)c3c(c2cc1OC)CNC3=O | 2 µM | inactive | 
9 | Oc1cc(O)c2ccccc2c1 | 3.3 µM | inactive | 
10 | COc1ccc(/C(C#N)=C\c2cc(OC)c(OC)c(OC)c2)cc1 | 20 µM |  | 40 µM
11 | CN1CC(c2ccccc2)=CC2=C1C=CC(=N)/C2=N\N | 2 µM | inactive | 
12 | C(=N\c1ccc(-c2cc(-c3ccccc3)nc3ccc4ccccc4c23)cc1)/c1ccccc1 |  | inactive | 
13 | Oc1ccccc1C(=NNc1ccccc1)c1ccccc1O | 3.9 µM |  | 3 µM
14 | O=C(C(=O)c1cc(-c2ccccc2)nc2ccc3ccccc3c12)c1ccccc1 |  | inactive | 
15 | C(=C\Nc1ccc(-c2ccccc2)cc1)/C=N/c1ccc(-c2ccccc2)cc1 | 9.7 µM | inactive | 
16 | Oc1ccc(-c2ccc(O)cc2O)c(O)c1 |  | inactive | 
17 | Cc1cc2c(ccc3c2ccc[n+]3C)[nH]1 | 2.1 µM | inactive | 
18 | Cc1nc(-n2nc(-c3ccccc3)cc2-c2ccccc2)sc1C(=O)/C=C/c1ccc(Cl)c(Cl)c1 | 4.9 µM |  | 
19 | CCn1c2ccccc2c2cc(N)c(/N=N/c3ccc([N+](=O)[O-])cc3)cc21 | 5 µM | inactive | 
20 | Cc1ccc(C(=N)c2ccccc2Cc2cccc3ccccc23)c2ccccc12 |  | inactive | 
21 | COc1cc(NC(C)CCCN)c2ncccc2c1 (stereo not drawn) [PRIMAQUINE] | 7.5 µM | inactive | 
22 | CN(C)c1ccc(/C=c2\c3cc([N+](=O)[O-])ccc3n3c2cc(-c2ccccc2)[n+]3C)cc1 | 5 µM | inactive | 

Row | SMILES | IC50 [1] | inhibition [2] | IC50 [3]
23 | CN(C)c1ccc(NN=C2SC(=N\c3ccccc3)/C(=N/c3ccccc3)S2)cc1 |  | inactive | 
24 | Fc1ccccc1C1CC(c2ccc3ccccc3c2)=Nc2ccccc2S1 (stereo not drawn) |  |  | 0.39 µM
25 | CC(=O)CCNc1ccc(-c2cc(-c3ccc(N(C)C)cc3)nc3ccc4ccccc4c23)cc1 |  | inactive | 
26 | c1ccc(-c2sc(-c3ccccc3)c3c2C2CCC3C2)cc1 |  | inactive | 
27 | CCN(CC)Cc1cc(Nc2c3ccccc3nc3c4ccccc4n(C)c23)ccc1O | 3.5 µM | inactive | 
28 | Clc1ccc(-c2nc3ccc4ccccc4c3c3c2CCCC3)cc1 |  | inactive | 
29 | O=[N+]([O-])c1ccc(N/N=C/c2c(Cl)n(-c3ccccc3)c3ccccc23)c([N+](=O)[O-])c1 |  | inactive | 
30 | Oc1cc(O)cc(-c2c(O)cc(O)cc2O)c1 |  |  | 10 µM
31 | c1ccc2c3ccn4ccc5c6ccccc6[nH]c5c4c-3nc2c1 | 2.9 µM | inactive | 
32 | Cc1nc(-n2nc(-c3ccccc3)cc2-c2ccccc2)sc1C(=O)/C=C/c1cccc([N+](=O)[O-])c1 | 6.5 µM |  | 
33 | Cn1cc/c(=N\N=c2/ccn(C)c3ccccc23)c2ccccc21 | 6.2 µM | inactive | 
34 | CC(/C=C/C(=O)c1sc(-n2nc(-c3ccccc3)cc2-c2ccccc2)nc1C)=C\c1ccccc1 | 3.8 µM |  | 
35 | c1ccc2cc(-c3cc(-c4cc(-c5ccc6ccccc6c5)on4)no3)ccc2c1 |  | inactive | 
36 | C1=c2ccccc2=C2C(=C(c3ccccc3)C(c3ccccc3)=NN2c2ccccc2)S1 |  | inactive | 
37 | Cc1nc(-n2nc(-c3ccccc3)cc2-c2ccccc2)sc1C(=O)/C=C/c1ccc([N+](=O)[O-])cc1 | 6 µM |  | 
38 | O=[N+]([O-])c1ccc(/C=C/c2cc(-c3ccccc3)nc3ccc4ccccc4c23)cc1 | 9.6 µM | inactive | 
39 | Cc1c2ccnc(-c3ccccc3)c2cc2c1[nH]c1ccccc12 | 2.1 µM | inactive | 
40 | CCN(CC)CCNC(=O)c1c2c(nc3ccccc13)CCCC2 |  | inactive | 
41 | Clc1ccc(-c2cn3c(nc4ccccc43)c(-c3ccccc3)n2)cc1 |  | inactive | 
42 | C(=N\NC1=NCCN1)/c1c2ccccc2c(/C=N/NC2=NCCN2)c2ccccc12 |  | inactive | 
43 | Cc1ccc(-n2cc(-c3ccc(Cl)cc3)c3c2N=CN2N=C(c4cccs4)NC32)cc1 (stereo not drawn) |  | inactive | 
44 | COc1cc2cc(-c3cc(OC)c(OC)c(OC)c3)c3c(c2cc1OC)CNC3 | 2.7 µM | inactive | 

Row | SMILES | IC50 [1] | inhibition [2] | IC50 [3]
45 | CCN(CC)CCCC(C)Nc1ccnc2cc(Cl)ccc12 (stereo not drawn) [CHLOROQUINE] | 1.5 µM | inactive | 
46 | c1ccc(/N=C2\SC(=NNc3ccccc3)S\C2=N/c2ccccc2)cc1 |  | inactive | 
47 | COc1cc(/C=C/c2ccc(OC)c(O)c2)cc(OC)c1 | 15 µM |  | 
48 | Clc1ccc2nc3c(c(-c4ccccc4)nn3-c3ccccc3)c(-c3ccccc3)c2c1 |  | inactive | 
49 | c1ccc2c(-c3ccsc3)c3c(ccc4ccccc43)cc2c1 | 5.1 µM | inactive | 
50 | Cc1ccc(/C=C/C(=O)c2sc(-n3nc(-c4ccccc4)cc3-c3ccccc3)nc2C)cc1 | 3.2 µM |  | 
51 | COc1ccc(/C(Cl)=C(/C=O)c2cc(OC)c(OC)c(OC)c2)cc1OC | 22 µM | inactive | 
52 | N/N=c1\c2ccccc2c2ccc3c4ccccc4/c(=N\N)c3c12 |  | inactive | 
53 | C#CCN(Cc1ccc2nc(-c3ccccc3)c(Cl)nc2c1)c1cc(OC)c(OC)c(OC)c1 |  | inactive | 
54 | Cn1c2ccccc2c2c3ccc[n+](C)c3ccc21 | 5.5 µM | inactive | 
55 | Cc1ccc(-c2cn3c(nc4ccccc43)c(-c3ccccc3)n2)cc1 |  | inactive | 
56 | O=C(NCCc1ccccc1)c1ccc2ccccc2n1 |  | inactive | 
57 | Cc1ccc2c(c1)-c1c3c(nn1-c1ccccc1)-c1ccccc1SC3O2 (stereo not drawn) |  | inactive | 
58 | Fc1ccc2c(c1)SC1Oc3ccccc3-c3c1c-2nn3-c1ccccc1 (stereo not drawn) |  | inactive | 
59 | Cc1cc(NCCCCCCNc2cc(C)nc3ccc(N)cc23)c2cc(N)ccc2n1 | 1.9 µM | inactive | 
60 | C(=C\c1c[nH]c2ccccc12)/c1nccc2ccccc12 | 1.8 µM | inactive | 
61 | N=C(N)c1ccc(/N=N/c2c(O)c(C(=O)Nc3ccccc3)cc3ccccc23)cc1 | 6 µM | inactive | 
62 | Cc1nc(-n2nc(-c3ccccc3)cc2-c2ccccc2)sc1C(=O)/C=C/c1ccc(Cl)cc1 | 5.3 µM |  | 
63 | CN(C)c1ccc(/C=c2\c3ccccc3n3c2cc(-c2ccccc2)[n+]3C)cc1 | 1.7 µM | inactive | 
64 | CCN1/C(=C/c2ccc3ccccc3[n+]2CC)C=Cc2ccccc21 | 2.7 µM | inactive | 
65 | c1ccc2sc(-c3c4ccccc4cc4ccc5ccccc5c34)cc2c1 | 6 µM |  | 1.1 µM
